“And” between values parts separate entries of the source, which are not always exact repeats. Identical values can stand only once. Toxic doses and inconclusive results are not listed.
Tested on: P388 leukemia ip, CD2F1 mice, survival T/C
Assay: NCI In Vivo Anticancer Drug Screen. Data for tumor model P388 Leukemia (intraperitoneal) in CD2F1 (CDF1) mice
Details: endpoint: median survival time, higher = longer survival
How it was run: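 Mice carrying the transplanted tumor received test compound or vehicle. Survival was recorded in each group, and the value is the treated-group measurement divided by that of the vehicle-treated control group.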

[1] = dose: 50.0 mg/kg/injection, schedule: Q01DX005 (ip), vehicle: Klucel (hydroxypropylcellulose) (HPC)
[2] = dose: 100.0 mg/kg/injection, schedule: Q01DX005 (ip), vehicle: Klucel (hydroxypropylcellulose) (HPC)
[3] = dose: 200.0 mg/kg/injection, schedule: Q01DX005 (ip), vehicle: Klucel (hydroxypropylcellulose) (HPC)
[4] = dose: 15.0 mg/kg/injection, schedule: Q01DX009 (ip), vehicle: saline with Tween-80
[5] = dose: 25.0 mg/kg/injection, schedule: Q01DX005 (ip), vehicle: saline with Tween-80
[6] = dose: 50.0 mg/kg/injection, schedule: Q01DX005 (ip), vehicle: saline with Tween-80
[7] = dose: 100.0 mg/kg/injection, schedule: Q01DX005 (ip), vehicle: saline with Tween-80
[8] = dose: 200.0 mg/kg/injection, schedule: Q01DX005 (ip), vehicle: saline with Tween-80
[9] = dose: 12.5 mg/kg/injection, schedule: Q01DX005 (ip), vehicle: saline with Tween-80
[10] = dose: 50.0 mg/kg/injection, schedule: Q01DX009 (ip), vehicle: saline
[11] = dose: 100.0 mg/kg/injection, schedule: Q01DX009 (ip), vehicle: saline
[12] = dose: 200.0 mg/kg/injection, schedule: Q01DX009 (ip), vehicle: saline
[13] = dose: 60.0 mg/kg/injection, schedule: Q01DX005 (ip), vehicle: Klucel (hydroxypropylcellulose) (HPC)
[14] = dose: 120.0 mg/kg/injection, schedule: Q01DX005 (ip), vehicle: Klucel (hydroxypropylcellulose) (HPC)
[15] = dose: 240.0 mg/kg/injection, schedule: Q01DX005 (ip), vehicle: Klucel (hydroxypropylcellulose) (HPC)
[16] = dose: 100.0 mg/kg/injection, schedule: Q01DX001 (ip), vehicle: saline
[17] = dose: 200.0 mg/kg/injection, schedule: Q01DX001 (ip), vehicle: saline
[18] = dose: 400.0 mg/kg/injection, schedule: Q01DX001 (ip), vehicle: saline

O=C(O)c1nnc(C(=O)O)nn1
T/C (dose: 6.25 mg/kg/injection, schedule: Q01DX009 (ip), vehicle: water): 98 % of control | T/C (dose: 12.5 mg/kg/injection, schedule: Q01DX009 (ip), vehicle: water): 103 % of control | T/C (dose: 25.0 mg/kg/injection, schedule: Q01DX009 (ip), vehicle: water): 102 % of control | T/C (dose: 50.0 mg/kg/injection, schedule: Q01DX009 (ip), vehicle: water): 100 % of control | T/C (dose: 100.0 mg/kg/injection, schedule: Q01DX009 (ip), vehicle: water): 90 % of control

Cn1c(NCCN2CCCCC2)c(C(=O)/C=C/c2ccccc2)c(=O)n(C)c1=O
T/C [1]: 104 % of control | T/C [2]: 107 % of control | T/C [3]: 103 % of control

COC1OCN(C(C)(C)C)CC1(C)C (stereo unspecified)
T/C [4]: 95 % of control | T/C (dose: 30.0 mg/kg/injection, schedule: Q01DX009 (ip), vehicle: saline with Tween-80): 102 % of control | T/C (dose: 60.0 mg/kg/injection, schedule: Q01DX009 (ip), vehicle: saline with Tween-80): 121 % of control

CC1=NCc2c(nnn2C)N1
T/C (dose: 100.0 mg/kg/injection, schedule: Q01DX001 (ip), vehicle: Klucel (hydroxypropylcellulose) (HPC)): 104 % of control | T/C (dose: 200.0 mg/kg/injection, schedule: Q01DX001 (ip), vehicle: Klucel (hydroxypropylcellulose) (HPC)): 101 % of control

CC(C)(C)c1cc(C(C)(C)O)c2c(c1)C(C)(C)OS2
T/C (dose: 50.0 mg/kg/injection, schedule: Q04DX003 (ip), vehicle: saline with Tween-80): 99 % of control | T/C (dose: 100.0 mg/kg/injection, schedule: Q04DX003 (ip), vehicle: saline with Tween-80): 106 % of control | T/C (dose: 200.0 mg/kg/injection, schedule: Q04DX003 (ip), vehicle: saline with Tween-80): 100 % of control

CCCCC(C)(C(=O)OCC)C(=O)OCC
T/C (dose: 12.5 mg/kg/injection, schedule: Q01DX005 (ip), vehicle: Klucel (hydroxypropylcellulose) (HPC)): 105 % of control | T/C (dose: 25.0 mg/kg/injection, schedule: Q01DX005 (ip), vehicle: Klucel (hydroxypropylcellulose) (HPC)): 105 % of control | T/C [1]: 105 % of control | T/C [2]: 105 % of control | T/C [3]: 111 % of control | T/C (dose: 400.0 mg/kg/injection, schedule: Q01DX005 (ip), vehicle: Klucel (hydroxypropylcellulose) (HPC)): 105 % of control

O=C1C(=O)C(CN2CCOCC2)=C(N2CCOCC2)C(N2CCOCC2)=C1CN1CCOCC1
T/C [5]: 100 % of control | T/C [6]: 100 % of control | T/C [7]: 98 % of control | T/C [8]: 100 % of control

CCOc1ccc(N2C(N)=NC(N)=NC2(C)C)cc1
T/C [9]: 99 % of control | T/C [5]: 101 % of control | T/C [6]: 101 % of control and 108 % of control

CCCCCCCCCCCCOC(=O)c1ccc(Cl)cc1
T/C (dose: 50.0 mg/kg/injection, schedule: Q01DX009 (ip), vehicle: saline with Tween-80): 87 % of control | T/C (dose: 100.0 mg/kg/injection, schedule: Q01DX009 (ip), vehicle: saline with Tween-80): 102 % of control | T/C (dose: 200.0 mg/kg/injection, schedule: Q01DX009 (ip), vehicle: saline with Tween-80): 104 % of control

CCC1(c2ccccc2)C(=O)N(C)C(=O)N(CCCl)C1=O (stereo unspecified)
T/C (dose: 50.0 mg/kg/injection, schedule: Q01DX009 (ip), vehicle: Klucel (hydroxypropylcellulose) (HPC)): 96 % of control | T/C (dose: 100.0 mg/kg/injection, schedule: Q01DX009 (ip), vehicle: Klucel (hydroxypropylcellulose) (HPC)): 98 % of control | T/C (dose: 200.0 mg/kg/injection, schedule: Q01DX009 (ip), vehicle: Klucel (hydroxypropylcellulose) (HPC)): 93 % of control

COCCCn1c(-c2cc(OC)c(OC)c(OC)c2)nn2c(=O)c3ccccc3nc2c1=O
T/C [10]: 102 % of control | T/C [11]: 107 % of control | T/C [12]: 101 % of control

CCOC(=O)/C=C1\CSC2=NC(c3ccccc3)CN21 (stereo unspecified)
T/C [13]: 94 % of control | T/C [14]: 94 % of control | T/C [15]: 86 % of control

COc1cccc(S(=O)c2ccc([N+](=O)[O-])c3no[n+]([O-])c23)c1 (stereo unspecified)
T/C (dose: 3.75 mg/kg/injection, schedule: Q01DX009 (ip), vehicle: saline with Tween-80): 95 % of control | T/C (dose: 7.5 mg/kg/injection, schedule: Q01DX009 (ip), vehicle: saline with Tween-80): 104 % of control | T/C [4]: 112 % of control

CC1=CC(=Nc2cc(Cl)c(O)c(Cl)c2)C=CC1=O
T/C (dose: 6.25 mg/kg/injection, schedule: Q01DX005 (ip), vehicle: saline): 96 % of control | T/C (dose: 12.5 mg/kg/injection, schedule: Q01DX005 (ip), vehicle: saline): 96 % of control | T/C (dose: 25.0 mg/kg/injection, schedule: Q01DX005 (ip), vehicle: saline): 89 % of control

CC(=O)Oc1ccc2c3c1O[C@H]1[C@@H](OC(C)=O)C=C[C@H]4[C@@H](C2)N(C)CC[C@@]341
T/C (dose: 0.39 mg/kg/injection, schedule: Q01DX009 (ip), vehicle: saline): 100 % of control | T/C (dose: 0.78 mg/kg/injection, schedule: Q01DX009 (ip), vehicle: saline): 101 % of control | T/C (dose: 1.56 mg/kg/injection, schedule: Q01DX009 (ip), vehicle: saline): 94 % of control | T/C (dose: 3.12 mg/kg/injection, schedule: Q01DX009 (ip), vehicle: saline): 95 % of control | T/C (dose: 6.25 mg/kg/injection, schedule: Q01DX009 (ip), vehicle: saline): 100 % of control | T/C (dose: 12.5 mg/kg/injection, schedule: Q01DX009 (ip), vehicle: saline): 110 % of control | T/C (dose: 25.0 mg/kg/injection, schedule: Q01DX009 (ip), vehicle: saline): 100 % of control | T/C [10]: 108 % of control | T/C [11]: 117 % of control | T/C [12]: 110 % of control

O=S(CF)c1ccccc1 (stereo unspecified)
T/C (dose: 75.0 mg/kg/injection, schedule: Q04DX003 (ip), vehicle: saline): 91 % of control | T/C (dose: 150.0 mg/kg/injection, schedule: Q04DX003 (ip), vehicle: saline): 101 % of control | T/C (dose: 300.0 mg/kg/injection, schedule: Q04DX003 (ip), vehicle: saline): 107 % of control

CC(NNC(=S)NCc1ccccc1)c1cc2ccccc2cn1 (stereo unspecified)
T/C [6]: 106 % of control and 113 % of control | T/C [7]: 119 % of control | T/C [8]: 160 % of control

O=S(=O)(O)CCc1nn[nH]n1
T/C [16]: 100 % of control | T/C [17]: 101 % of control | T/C [18]: 101 % of control

CCc1nc(N)nc(N)c1-c1ccc(Cl)c(NC(C)=O)c1
T/C (dose: 3.13 mg/kg/injection, schedule: Q01DX009 (ip), vehicle: distilled water + Tween-80): 94 % of control | T/C (dose: 6.25 mg/kg/injection, schedule: Q01DX009 (ip), vehicle: distilled water + Tween-80): 94 % of control | T/C (dose: 12.5 mg/kg/injection, schedule: Q01DX009 (ip), vehicle: distilled water + Tween-80): 94 % of control | T/C (dose: 25.0 mg/kg/injection, schedule: Q01DX009 (ip), vehicle: distilled water + Tween-80): 88 % of control | T/C (dose: 50.0 mg/kg/injection, schedule: Q01DX009 (ip), vehicle: distilled water + Tween-80): 91 % of control

CC1CC(c2ccccc2Cl)C(c2ccccc2)C(=O)O1 (stereo unspecified)
T/C (dose: 100.0 mg/kg/injection, schedule: Q04DX003 (ip), vehicle: Klucel (hydroxypropylcellulose) (HPC)): 100 % of control | T/C (dose: 200.0 mg/kg/injection, schedule: Q04DX003 (ip), vehicle: Klucel (hydroxypropylcellulose) (HPC)): 106 % of control | T/C (dose: 400.0 mg/kg/injection, schedule: Q04DX003 (ip), vehicle: Klucel (hydroxypropylcellulose) (HPC)): 108 % of control

Fc1cccc(CSC(=S)Nc2ccccc2)c1
T/C [16]: 106 % of control | T/C [17]: 102 % of control | T/C [18]: 102 % of control

CCOC(=O)c1c(C(=O)Nc2ccccc2)c(-c2ccccc2)n(NC(=O)c2cccc(Cl)c2)c1C
T/C [13]: 98 % of control | T/C [14]: 94 % of control

CC1CC(C)C(C)C(CNCC2CC(C)CC(C)C2C)C1 (stereo unspecified)
T/C [9]: 99 % of control | T/C [5]: 99 % of control | T/C [6]: 102 % of control and 97 % of control | T/C [7]: 102 % of control

CCN(CC)C1=C(C)C(C(=O)OC)=C(C(=O)OC)C12c1ccccc1-c1ccccc12
T/C [13]: 92 % of control | T/C [14]: 92 % of control | T/C [15]: 86 % of control
